Results on two compounds are retold here after patent US9185889B2, “CD4 T-cells and CD8zeta cells involved in mammalian host response to epithelial cell infections and uses thereof” (Indiana University Research and Technology Corporation, priority 2010, dated 2015).

Assay [1] relates to C. muridarum. The assay can be described thus: Control of C. muridarum replication in C57epi.1 epithelial cells (IFU titered on McCoy monolayers). Format: cell-based, Chlamydia muridarum. The method, then:
To test whether the CD4 clones could control the Chlamydia replication in vitro, C57epi.1 monolayers in 48 well plates were untreated, or treated with IFN-γ (10 ηg/ml) for 14 h prior to infection or at the time of infection with 3 IFU of C. muridarum per cell. After addition of C. muridarum the plates were spun at 1200 rpm (300 g) for 30 minutes. Four hours after infection the inoculum was removed CD4 T cell clones were added in T cell media. 36 h post-infection, wells were scraped, harvested, and stored at −80° C. until C. muridarum titers determined on McCoy monolayers as previously described (Johnson, R. M., 2004). Recombinant murine IFN-γ at all concentrations tested (up to 1000 ρg/ml) had no effect on C. muridarum titrations done on the McCoy monolayers; maximum IFN-γ carryover in dilutions used for quantifying C. muridarum was <50 ρg/ml.
The panel of CD4 T cell clones was tested to determine the ability of specific clones to control C. muridarum replication in C57epi.1 epithelial cells (FIG. 2). Monolayers of C57epi.1 cells in 48 well plates (˜200,000 epithelial cells per well) were untreated or treated with IFN-γ, either 14 h prior to infection or at the time of infection, then infected with C. muridarum. Four hours post-infection the inoculating media was removed and replaced with T cell media containing CD4 T cell clones; 150, 000 T cells were added per well for an effector-to-target ratio of ˜0.75:1. 32 h later the wells were harvested with additional SPG buffer and recovered C. muridarum titered on McCoy monolayers to score replication. […] IFUs recovered from experimental wells were compared with identically treated (untreated or IFN-γ treated) parallel control wells (no T cells) to calculate % control replication. This normalization controls for the difference in C. muridarum replication in the untreated vs. IFN-γ treated C57epi.1 cells.
Referring now to FIG. 12A, the modest inhibitory effect of IFN-γ was reversed by blocking NO production with either MLA or NIL. […] According to FIG. 12B, C57.1epi cells were untreated (hatched bar) or pretreated with IFN-γ (10 ηg/ml×14 hours) in absence (black bar) or presence of MLA (gray bar) or NIL (light gray bar), and then infected with C. muridarum (3 IFU/cell). Wells were harvested at 36 hours postinfection and C. muridarum (IFU) quantified on McCoy monolayers. Comparisons were made to the infected (hatched bar).
Referring now to FIG. 19B, C. muridarum replication in epithelial cells, by an iNOS-independent mechanism, is controlled by IFN-γ-independent CD4 T cell clones. […] Wells were harvested 36 hours post infection and C. muridarum quantified on McCoy monolayers. […]

In assay [2] the target is T1, iNOS (Mus musculus, UniProt P29477).
T1 construct: C57epi.1 is a cloned oviduct epithelial cell line derived from a C57BL/6 mouse; endogenous in cells; host or cells: C57epi.1 mouse (C57BL/6) oviduct epithelial cell line, IFN-gamma pretreated and infected with C. muridarum, with or without mouse CD4 T cell clones
As to the kind of experiment: NO production measured as nitrite by infected C57epi.1 epithelial cells with iNOS inhibitors. Format: cell-based, murine. Here is the method: Referring now to FIG. 19A, C57 epi.1 epithelial cells, untreated (hatched bars) or pretreated with IFN-γ (10 ηg/ml×14 hours) in the absence (black bars) or presence of iNOS inhibitors MLA (gray bars) or NIL (light gray bars),—were infected with C. muridarum (3 IFU/cell). Four hours later, the inocula were removed and monolayers cocilted with and with CD4 T-cell clones uvmo-1, -2, and -3 for an additional 32 hours. Supernatants were collected at 36 hour post infection, 32 hour post T cell coculture, and analyzed for NO production measured as nitrite. […] Also, MLA and NIL were effective inhibitors of NO production, as MLA blocked>90% of IFN-γ-induced NO; NIL blocked ˜60%.
Still referring to FIG. 19A, the iNOS inhibitor MLA blocks infected epithelial nitrite production to the background level of 2 uM even in the presence of exogenous interferon gamma and CD4 T cell clones uvmo-1,-2,-3. Inhibition of iNOS activity induced by interferon gamma, and interferon gamma plus CD4 T cell clones uvmo-1,-2,-3, in infected C57epi.1 murine epithelial cells using the iNOS inhibitors N^G-Monomethyl-L-arginine (MLA) and L-N^6-(1-Iminoethyl)lysine (NIL). iNOS activity was measured as nitrite in 24 h culture supernatants. […] 24 h supernatants from uninfected C57epi.1 murine epithelial cells have nitrite levels>0<1.5 uM.

Consider `CC(=N)NCCCC[C@H](N)C(=O)O.Cl` [NIL, L-N^6-(1-iminoethyl)lysine hydrocholoride], for which the “effect on the modest inhibitory effect of IFN-γ on C. muridarum replication” value in assay [1] (C57epi.1 pretreated with IFN-γ, no T cells) was “reversed”. For the same compound, the “block of IFN-γ-induced NO” value in assay [2] (infected C57epi.1 cells, nitrite in supernatants) was approximately 60%.
On to “IFN-γ: Recombinant murine IFN-γ (R&D Systems)”, for which the “C. muridarum replication in control wells (no T cells)” value in assay [1] (C57epi.1 pretreated with IFN-γ 14 h prior to infection, pooled means from two experiments) was 4±2×10^6 IFU/well; in assay [1] (IFN-γ added at the time of infection), 5±1×10^6 IFU/well. Also, in assay [1] (all concentrations tested (up to 1000 ρg/ml)), the “effect on C. muridarum titrations done on McCoy monolayers” value is “no effect”. Further, the “induction of NO production in C57epi.1 epithelial cells” value in assay [2] (IFN-γ 10 ηg/ml × 14 hours, infected, p<0.0001) is given as “roughly 6 fold”.
